“Also recorded” adds a separate entry of the source. No end group written: not given here.
Legend:
[1] = tested on: binding of monoclonal antibody 2G3 to the CS protein P. knowlesi; experiment: Inhibition radioimmunoassay: binding of 125I-labelled monoclonal antibody 2G3 to P. knowlesi CS protein; conditions: for Inhibitory activity on binding of monoclonal antibody 2G3 to CS protein (in words): FIGS. 1, 2 / Table 3
Protocol: (§1) The immunoactivity of the synthetic peptides was evaluated by measuring their ability to inhibit the reaction between the monoclonal anti-CS and the antigen (CS protein). Antigen was purified from sporozoites, as disclosed in the Malaria Vaccine patent application and as also described by Vanderberg, supra, and Zavala, F., et al, supra, 1982, is preferably employed using ^125 I-labeled antibody.
(§2) Competitive inhibition of the antigen-antibody reaction by the thus synthesized peptides was measured by the following radioimmunoassay. P. knowlesi sporozoite CS protein was used as the antigen.
(§3) (a) Preparation of antigen: 3,000 purified P. knowlesi sporozoites (Vanderberg et al., Military Medicine 134:1183, 1969) in 50 μl of phosphate buffered saline (PBS) containing protease inhibitors, were delivered to the bottom of polystyrene (Falcon 3911 plate, B-D and Co., Oxnard, Calif.) microtiter plates, which were sealed with parafilm and frozen at -70° C. for at least ten minutes. The plates were then allowed to defrost slowly at room temperature. This procedure was repeated six times. Then the plates were incubated at 4° C. overnight, and at 56° C. for five minutes. The P. knowlesi extract was then removed from the wells and these were washed three times with PBS containing 1% bovine serum albumin (BSA) and 0.1% NaN3. The wells were then filled with PBS-BSA-NaN3 for a few hours at room temperature.
(§4) All synthetic peptides were dissolved in PBS at a concentration of 10 mM and subsequently diluted serially in PBS-1% BSA/0.1% NaN3. Twenty-five μl of serial dilutions of each peptide were added to the wells coated with antigen. Control wells received only the diluent. Then, 25 μl of the ^125 I-labelled monoclonal antibody (about 5-10ng, 10 ^5 cpm) were added to the wells. The microtiter plates were incubated at 4° C. for 18 hours, washed 5 times with PBS-BSA-NaN3 and then the wells were counted for well-bound antibody. (LKB 1260 Muilti-gamma γ-counter LKB Instruments, Inc., Gaithersburg, Md.). […]

[2] = tested on: binding of monoclonal antibody 5H8 to the CS protein P. knowlesi; experiment: Inhibition radioimmunoassay: binding of 125I-labelled monoclonal antibody 5H8 to P. knowlesi CS protein; conditions: summary of FIGS. 1, 3 / Table 3
Protocol: as §1, §2
(§5) (a) Preparation of antigen: 3,000 purified P. knowlesi sporozoites (Vanderberg et al., Military Medicine 134:1183, 1969) in 50 μl of phosphate buffered saline (PBS) containing protease inhibitors, were delivered to the bottom of polystyrene (Falcon 3911 plate, B-D and Co., Oxnard, Calif.) microtiter plates, which were sealed with parafilm and frozen at -70° C. for at least ten minutes. The plates were then allowed to defrost slowly at room temperature. This procedure was repeated six times. […]
(§6) All synthetic peptides were dissolved in PBS at a concentration of 10 mM and subsequently diluted serially in PBS-1% BSA/0.1% NaN3. […] The microtiter plates were incubated at 4° C. for 18 hours, washed 5 times with PBS-BSA-NaN3 and then the wells were counted for well-bound antibody. […]

[3] = tested on: binding of radiolabelled 8E11 to the CS protein of P. knowlesi; experiment: Inhibition radioimmunoassay: binding of radiolabelled monoclonal antibody 8E11 to P. knowlesi CS protein
Protocol: as §1, §2, §3, §4

[4] = tested on: monoclonal anti-CS / CS protein of P. knowlesi; experiment: Reactivity of synthetic peptides with monoclonal anti-CS (antibody not specified); format: binding; conditions: antibody not given; compared with (1-12) or (5-12) where stated
Protocol: Four monoclonal antibodies (2G3, 5H8, 8B8, and 8E11) were used in immunoactivity testing of synthesized shorter length analogs of the 12-peptide. The purpose was further localization and identification of the epitope contained therein.
After synthesis, cleavage and purification, the peptides were tested for reactivity with monoclonal anti-CS, preferably partially purified. The anti-CS used in these tests were produced by ascites tumor induction using hybridoma cells resulting from the fusion of plasmacytoma cells with spleen cells of a mouse immunized with the parasite, as described by Cochrane, A. H. et al, supra, and as disclosed in the Malaria Vaccine patent application.
The immunoactivity of the synthetic peptides was evaluated by measuring their ability to inhibit the reaction between the monoclonal anti-CS and the antigen (CS protein). […]
Competitive inhibition of the antigen-antibody reaction by the thus synthesized peptides was measured by the following radioimmunoassay. […]
as §6

[5] = tested on: monoclonal antibody 2G3 against the surface protein of P. knowlesi; experiment: Binding of 125I-labelled tetraeicosapeptide to Sepharose beads bearing monoclonal antibody 2G3; design: species or system mouse
From the text: (§7) Monoclonal antibodies against surface antigens of sporozoites of the simian malaria parasite Plasmodium knowlesi were produced by fusion of plasmacytoma cells with spleen cells of a mouse immunized witn the parasite as previously described by Cochrane et al., supra., (1982) and described in detail in the Malaria Vaccine patent application. The monoclonal antibodies (four idiotypes: 2G3, 8B8, 5H8 and 8E11 were partially purified from ascites of mice bearing hybridomas by 50% ammonium sulphate precipitation followed by molecular sieve chromatography on Sephadex G-200.
(§8) To determine whether the 24-peptide is recognized by all monoclonal antibodies, 5 mg of purified monoclonal antibodies were bound to 1 ml of CNBr activated Sepharose 4B (Pharmacia Fine Chemicals, Piscataway, N.J., U.S.A.) according to instructions of the manufacturer. The 24 amino acid peptide was radiolabelled with ^125 I with the Boulton-Hunter reagent, to a specific activity of approximately 10^4 cpm/μg. Twenty μl of beads bearing the different antibodies were incubated for 60 minutes at room temperature in the presence of 100 μl of PBS-BSA containing either 1 μg of the radiolabelled peptide alone or radiolabelled peptide in the presence of […] of cold tetraeicosapeptide. The beads were then washed by centrifugation with PBS-BSA and counted in a gamma-counter.

[6] = tested on: monoclonal antibody 5H8 against the surface protein of P. knowlesi; experiment: Binding of 125I-labelled tetraeicosapeptide to Sepharose beads bearing monoclonal antibody 5H8; design: species or system mouse
From the text: as §7, §8

[7] = tested on: monoclonal antibody 8B8 against the surface protein of P. knowlesi; experiment: Binding of 125I-labelled tetraeicosapeptide to Sepharose beads bearing monoclonal antibody 8B8; design: species or system mouse
From the text: as §7, §8

[8] = tested on: monoclonal antibody 8A8 against the surface protein of P. knowlesi; experiment: Binding of 125I-labelled tetraeicosapeptide to Sepharose beads bearing monoclonal antibody 8A8; design: species or system mouse
[9] = tested on: monoclonal antibody (3D11) against the surface protein of P. berghei; experiment: Binding of 125I-labelled tetraeicosapeptide to control beads bearing monoclonal antibody 3D11
Protocol: as §8

monoclonal antibody 8E11 = experiment: Binding of 125I-labelled tetraeicosapeptide to Sepharose beads bearing monoclonal antibody 8E11; design: species or system mouse; conditions: other experiments, not shown
From the text: as §7, §8

monoclonal antibody 6B8 = experiment: Binding of 125I-labelled tetraeicosapeptide to Sepharose beads bearing monoclonal antibody 6B8; design: species or system mouse; conditions: other experiments, not shown
From the text: as §7, §8

[10] = tested on: binding of monoclonal antibody 2G3 to the CS protein P. knowlesi; conditions: cited from earlier work
[11] = tested on: binding of monoclonal antibody 8B8 to the CS protein P. knowlesi; experiment: Inhibition radioimmunoassay: binding of 125I-labelled monoclonal antibody 8B8 to P. knowlesi CS protein; conditions: text summary of FIG. 4 / Table 3
Protocol: as §1, §2, §5, §6

[12] = 2G3 beads in PBS-BSA + excess of cold tetraeicosapeptide
[13] = 5H8 beads in PBS-BSA + excess of cold tetraeicosapeptide
[14] = 8B8 beads in PBS-BSA + excess of cold tetraeicosapeptide
[15] = 8A8 beads in PBS-BSA + excess of cold tetraeicosapeptide
[16] = control 3D11 beads suspended in PBS-BSA

With “H-QAQGDGANAGQPQAQGDGANAGQP-NH2 [Peptide 1-24]” the “Inhibitory activity on binding of monoclonal antibody 2G3 to CS protein (in words)” value [1] was “almost identical”, the “Inhibitory activity on binding of monoclonal antibody 5H8 to CS protein (in words)” value [2] was “almost identical” and the “Inhibition of binding of antibody 8E11 to CS protein (in words)” value [3] was “inhibited”. The IC50 ([3]; FIG. 1, read-out: Concentration giving about 50% inhibition of binding of radiolabelled 8E11 to the CS protein) was about 10 µM, the “Reactivity with monoclonal anti-CS (in words)” value [4] was “reacted” and the “% of input of radiolabelled tetraeicosa peptide that bound to the beads” value [5, 12] was 0.2 % of input. The “cpm of radiolabelled tetraeicosa peptide that bound to the beads” value [5, 12] was 25 cpm, the “% of input of radiolabelled tetraeicosa peptide that bound to the beads” value ([5]; 2G3 beads suspended in PBS-BSA) was 25.8 % of input and the “cpm of radiolabelled tetraeicosa peptide that bound to the beads” value ([5]; 2G3 beads suspended in PBS-BSA, 1 μg radiolabelled peptide) was 2922 cpm. The “% of input of radiolabelled tetraeicosa peptide that bound to the beads” value [6, 13] was 0.2 % of input, the “cpm of radiolabelled tetraeicosa peptide that bound to the beads” value [6, 13] was 20 cpm and the “% of input of radiolabelled tetraeicosa peptide that bound to the beads” value ([6]; 5H8 beads suspended in PBS-BSA) was 19.7 % of input. For the same substance, the “cpm of radiolabelled tetraeicosa peptide that bound to the beads” value ([6]; 5H8 beads suspended in PBS-BSA) was 2332 cpm, the “% of input of radiolabelled tetraeicosa peptide that bound to the beads” value [7, 14] was 0.2 % of input and the “cpm of radiolabelled tetraeicosa peptide that bound to the beads” value [7, 14] was 20 cpm. For the same substance, the “% of input of radiolabelled tetraeicosa peptide that bound to the beads” value ([7]; 8B8 beads suspended in PBS-BSA) was 27.8 % of input, the “cpm of radiolabelled tetraeicosa peptide that bound to the beads” value ([7]; 8B8 beads suspended in PBS-BSA) was 3155 cpm and the “% of input of radiolabelled tetraeicosa peptide that bound to the beads” value [8, 15] was 0.2 % of input. For the same substance, the “cpm of radiolabelled tetraeicosa peptide that bound to the beads” value [8, 15] was 25 cpm, the “% of input of radiolabelled tetraeicosa peptide that bound to the beads” value ([8]; 8A8 beads suspended in PBS-BSA) was 10.3 % of input and the “cpm of radiolabelled tetraeicosa peptide that bound to the beads” value ([8]; 8A8 beads suspended in PBS-BSA) was 1092 cpm. For the same substance, the “cpm of radiolabelled tetraeicosa peptide that bound to the beads” value ([9]; control 3D11 beads in PBS-BSA + excess of cold tetraeicosapeptide) was 0 cpm, the “% of input of radiolabelled tetraeicosa peptide that bound to the beads” value [9, 16] was 0.2 % of input and the “cpm of radiolabelled tetraeicosa peptide that bound to the beads” value [9, 16] was 25 cpm. For the same substance, the “Binding of radiolabelled (1-24) to beads bearing 8E11 (in words)” value (monoclonal antibody 8E11) was “Analogous results”, the “Binding of radiolabelled (1-24) to beads bearing 6B8 (in words)” value (monoclonal antibody 6B8) was “Analogous results” and the “Reactivity with monoclonal anti-CS 2G3 (previous work)” value [10] was “interacted simultaneously with two molecules of 2G3”.

For “QAQGDGANAGQP-NH2 [Peptide 1-12, NH2 Gln-Ala-Gln-Gly-Asp-Gly-Ala-Asn-Ala-Gly-Gln-ProCONH2]”, the “Inhibitory activity on binding of monoclonal antibody 8B8 to CS protein (in words)” value [11] was “strongly inhibitory”, the “Inhibitory activity on binding of monoclonal antibody 2G3 to CS protein (in words)” value [1] was “almost identical; also recorded: strongly inhibitory” and the “Molar concentration of peptide (×5) necessary for 50% inhibition of binding of monoclonal antibody 2G3” value ([1]; head prints (×5), radiolabeled 2G3, CS protein P. knowlesi immobilized on wells, 4° C. for 18 hours) was 10^-13 Molar. For the same substance, the “Inhibitory activity on binding of monoclonal antibody 5H8 to CS protein (in words)” value [2] was “almost identical; also recorded: strongly inhibitory”, the “Inhibitory effect on binding of 8E11 to CS protein at a fixed concentration” value ([3]; at a concentration of 10^-2 M) was “no appreciable inhibitory effect” and the “Reactivity with monoclonal anti-CS (in words)” value [4] was “very efficient inhibitors”. The “Reactivity with monoclonal anti-CS 2G3 (previous work)” value [10] was “very effectively inhibited”.

Reference: patent publication US4769235A, “Immunodominant epitope of the circumsporozoite surface protein” (New York University, priority 1984, dated 1988)
